Test results: paper PMC5645361, “Expression and function of Abcg4 in the mouse blood-brain barrier: role in restricting the brain entry of amyloid-β peptide” (Scientific Reports, 2017)
Like-named read-outs stand apart in the source and are kept apart here.

What was measured:
Abcg4 [1] = molecular target: T1, Abcg4 (Mus musculus, UniProt Q91WA9); experiment: In situ brain perfusion (ISBP): brain uptake clearance of tritiated tracers at the luminal BBB, WT and Abcg4-KO mice; conditions: WT mice, 60 s perfusion
T1 sequence (Q91WA9 whole entry, the tested form may be a part): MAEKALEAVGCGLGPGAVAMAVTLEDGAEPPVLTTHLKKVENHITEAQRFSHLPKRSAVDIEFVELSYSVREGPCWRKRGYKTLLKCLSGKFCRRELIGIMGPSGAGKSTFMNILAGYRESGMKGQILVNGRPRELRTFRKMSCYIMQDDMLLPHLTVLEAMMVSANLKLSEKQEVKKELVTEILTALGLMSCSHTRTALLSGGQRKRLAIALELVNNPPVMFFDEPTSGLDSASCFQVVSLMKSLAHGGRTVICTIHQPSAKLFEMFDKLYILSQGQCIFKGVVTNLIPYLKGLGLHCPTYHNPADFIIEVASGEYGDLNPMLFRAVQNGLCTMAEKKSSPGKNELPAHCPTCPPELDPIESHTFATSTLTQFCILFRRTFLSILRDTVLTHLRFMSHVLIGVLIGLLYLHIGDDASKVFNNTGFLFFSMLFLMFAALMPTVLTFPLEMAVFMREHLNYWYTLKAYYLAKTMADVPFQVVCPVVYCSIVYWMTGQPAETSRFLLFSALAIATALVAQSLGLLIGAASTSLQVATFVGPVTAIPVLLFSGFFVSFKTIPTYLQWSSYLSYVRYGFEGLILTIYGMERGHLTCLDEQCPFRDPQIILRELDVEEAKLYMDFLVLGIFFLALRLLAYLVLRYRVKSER
Description: (§1) The function of Abcg4 at the mouse BBB was evaluated by using the in situ brain perfusion (ISBP) technique. This method was developed to study drug transport processes occurring at the luminal side of the BCECs[40],[41] and can be used to measure transport parameters, including the brain volume of distribution and the brain uptake clearance (Clup) of a target molecule over very short periods (30–120 s). The resulting Clup integrates the effect of enhancing or limiting factors introduced by the transporters located at the luminal side of BCECs. This method allows for measurement of the initial brain uptake of molecules, which results from both the influx and the efflux mechanisms involved in their transport. One of the advantages of this technique is the ability to administer inhibitors, or to use transporter deficient mice, in order to modulate function at the luminal side of the BBB.
(§2) Mice were anesthetized by intra-peritoneal injection of a mixture of ketamine and xylazine at 140:8 mg/kg. The right common carotid artery was ligated on the heart side and the right external carotid artery was ligated at the level of the bifurcation. A catheter was inserted into the right common carotid artery. The perfusion liquid was contained in a syringe placed in an infusion pump and connected to the catheter. Before the perfusion, the thorax of the animal was opened, the heart was removed and perfusion started immediately at flow of 2.5 mL/min. The perfusion fluid was Krebs bicarbonate-buffered physiological saline (128 mM NaCl, 24 mM NaHCO3, 4.2 mM KCl, 2.4 NaH2PO4, 1.5 mM CaCl2, 0.9 mM MgCl2 and 9 mM D-glucose).The solution was gassed with 95% O2−5% CO2 to bring the pH to 7.40 and warmed to 37 °C in water bath. Each mouse was perfused for 60 s with [^3H]Aβ1–40 (0.2 µCi/mL) or [^3H]desmosterol (0.2 µCi/mL). [^14C]sucrose was used as a vascular marker of the physical integrity of the BBB and co-perfused with the tritiated substrate. The brain uptake of tritiated tracers was also measured in the presence of unlabeled substrates [probucol 10 µM, desmosterol 20 µM orT4 10 µM], dissolved in their respective vehicles [DMSO ( < 0.5% in final perfusion fluid) or H2O/NaOH]. The experiment was terminated by decapitating the mouse. The right cerebral hemisphere and aliquots of the perfusion fluid were sampled in tared vials, weighted, digested in 2 mL of Solvable® solubilizer (PerkinElmer, Courtaboeuf, France) at 50 °C and mixed with 9 mL of Ultima Gold XR® scintillation cocktail (PerkinElmer). Labeled compounds were counted on a Tri-Carb® (PerkinElmer) counter with the appropriate dual (^14C/^3H) quenching curves and standards to measure disintegration per minute (dpm) in samples.
(§3) The brain uptake clearance (Clup, µL/g) is the ratio between the apparent tissue distribution volume (Vbrain, µL/g) of [^3H]Aβ1–40 or [^3H]desmosterol and the perfusion time (s). The Vbrain was calculated from the amount of radioactivity in the right brain hemisphere using the following equation: Vbrain=Xbrain/Cperf where Xbrain (dpm/g) is the calculated amount of tritiated tracer in the right cerebral parenchyma and Cperf (dpm/µL) is the concentration of tritiated tracer in the perfusion fluid. Xbrain is obtained by this equation: Xbrain=Xtot−(Vvasc×Cperf) where Xtot (dpm/g) is the total amount of tritiated tracer measured in the brain tissue sample (vascular and extravascular).

Abcg4 [2] = experiment: as above
Description: as §1, §2, §3

Abcg4 [3] = conditions: mouse, in vivo
Description: as §1, §2, §3

Abcb1 = tested on: Abcb1; design: method as in PMID 11181832; conditions: read-out: Km of Aβ reported for Abcb1; cited from earlier work
[4] = mouse, in vivo
Description: Mice were anesthetized by intra-peritoneal injection of a mixture of ketamine and xylazine at 140:8 mg/kg. The right common carotid artery was ligated on the heart side and the right external carotid artery was ligated at the level of the bifurcation. A catheter was inserted into the right common carotid artery. The perfusion liquid was contained in a syringe placed in an infusion pump and connected to the catheter. Before the perfusion, the thorax of the animal was opened, the heart was removed and perfusion started immediately at flow of 2.5 mL/min. […] The brain uptake of tritiated tracers was also measured in the presence of unlabeled substrates [probucol 10 µM, desmosterol 20 µM orT4 10 µM], dissolved in their respective vehicles [DMSO ( < 0.5% in final perfusion fluid) or H2O/NaOH]. […] Labeled compounds were counted on a Tri-Carb® (PerkinElmer) counter with the appropriate dual (^14C/^3H) quenching curves and standards to measure disintegration per minute (dpm) in samples.
The brain uptake clearance (Clup, µL/g) is the ratio between the apparent tissue distribution volume (Vbrain, µL/g) of [^3H]Aβ1–40 or [^3H]desmosterol and the perfusion time (s). […] Xbrain is obtained by this equation: Xbrain=Xtot−(Vvasc×Cperf) where Xtot (dpm/g) is the total amount of tritiated tracer measured in the brain tissue sample (vascular and extravascular).

Abcg4 [5] = molecular target: T1, Abcg4; experiment: Abcg4-mediated Aβ transport/efflux in HEK-Abcg4 transfected cells; type: cell-based; conditions: data not shown
Excerpt: Abcg4 monomers come together to form a homodimer that includes nearly identical binding clefts which are opposite one another on the dimer surface. The homology model is an approximation of the dimer structure frozen in time which fails to capture the dynamic nature of protein motions. In vivo it is likely that nucleotide binding changes the overall configuration of the dimer to allow for sterol binding on one side of the complex followed by translocation of sterol to the dimer core before being exported from the membrane. One consequence of this movement could be that only one sterol-binding site exists at a given time. Thus, sterol binding would alternate from one binding site to the other as sterols are translocated. This mechanism could explain why the homology model has a single sterol-binding site despite the presence of two nearly identical binding clefts. […] Abcg4 seems to have two Aβ binding sites which agrees with our previous data that percent efflux of Aβ was greater than cholesterol[18] and with our current data that desmosterol competes with Aβ efflux. Furthermore, we previously measured, in HEK-Abcg4 transfected cells, the velocity of Aβ transport by Abcg4 as a function of [^3H]Aβ1-40 concentrations. […]

Abcb1 and Abcg2 = conditions: brain efflux index (BEI) method; cited from earlier work
Abcg4 [6] = molecular target: T1, Abcg4; design: Wild-type C57BL/6 and Abcg4-KO mice had free access to standard laboratory food and water; from tissue; host or cells: brain capillary endothelial cells of living C57BL/6 mice (in situ brain perfusion); conditions: HEK-Abcg4 transfected cells; cited from earlier work
Excerpt: We had shown previously that a probucol- and T4-sensitive transporter, different from Abca1, Abcb1 and Abcg2, restricted the brain entry of [^3H]Aβ1-40 through the mouse BBB[18],[43].

[7] = T4 10 µM in perfusion buffer, means of 5–8 mice
[8] = Abcg4-KO mice, T4 10 µM, 60 s perfusion, 5–8 mice
[9] = Abcg4-KO mice, probucol 10 µM, 60 s perfusion, 8–9 mice

Compound: CC(C)=CCC[C@@H](C)[C@H]1CC[C@H]2[C@@H]3CC=C4C[C@@H](O)CC[C@]4(C)[C@H]3CC[C@]12C [desmosterol]
- Increase of [3H]Aβ1-40 Clup in the presence vs absence of desmosterol (ER desmosterol/ctrl) (Abcg4 [1]; desmosterol 20 µM in perfusion buffer, means of 5–7 mice): 1.8 fold
- Effect of desmosterol on [3H]Aβ1-40 Clup (Abcg4 [2]; Abcg4-KO mice, desmosterol 20 µM, 60 s perfusion, 5–7 mice): no significant effect
- Time course of brain volume of distribution (Vbrain) as a function of perfusion time (Abcg4 [2]; WT C57BL/6 mice, right hemisphere, in situ brain perfusion, 3 animals per data point, r2 = 0.944): linear increase
- Brain uptake clearance (Clup) in Abcg4-KO mice compared with WT mice (Abcg4 [2]; in situ brain perfusion, 60 s, tracer 0.2 µCi/mL, absence of probucol, 8–9 mice, two-way ANOVA, Bonferroni): not significantly different

Compound: Aβ1–40: amyloid-β peptide, 40 amino-acid form, used tritiated as transport tracer
- Brain uptake clearance (Clup) in Abcg4-KO mice compared with WT mice (Abcg4 [3]): not significantly different
- Km (Abcb1): 12.5 µM

Compound: OC[C@H]1O[C@@](CO)(O[C@H]2O[C@H](CO)[C@@H](O)[C@H](O)[C@H]2O)[C@@H](O)[C@@H]1O [sucrose]
- Brain vascular volume (Vvasc), distribution volume of [14C]sucrose [4]: under 20 µL/g

Compound: N[C@@H](Cc1cc(I)c(Oc2cc(I)c(O)c(I)c2)c(I)c1)C(=O)O [T4, L-thyroxine]
- Increase of [3H]Aβ1–40 Clup in the presence vs absence of T4 (ER T4/ctrl) (Abcg4 [1]; [7]): 2 fold
- Increase of [3H]desmosterol Clup in the presence vs absence of T4 (ER T4/ctrl) (Abcg4 [1]; [7]): 1.8 fold
- Effect of T4 on [3H]Aβ1–40 Clup (Abcg4 [2]; [8]): this effect was lost
- Effect of T4 on [3H]desmosterol Clup (Abcg4 [2]; [8]): this effect was lost
- Inhibition of Abcg4-mediated Aβ efflux (Abcg4 [5]): 5.8 fold

Compound: CNC(=O)c1cc(Oc2ccc(NC(=O)Nc3ccc(Cl)c(C(F)(F)F)c3)cc2)ccn1 [sorafenib]
- Brain clearance in Mdr1a/b−/− mice compared with WT mice (Abcb1 and Abcg2): the same
- Decrease of brain clearance in Abcb1/Abcg2-deficient mice (Abcb1 and Abcg2): 2.5 fold
- Decrease of brain clearance in Abcg2-deficient mice (Abcb1 and Abcg2): 2 fold

Compound: CC(C)(Sc1cc(C(C)(C)C)c(O)c(C(C)(C)C)c1)Sc1cc(C(C)(C)C)c(O)c(C(C)(C)C)c1 [probucol]
- Increase of [3H]desmosterol Clup in the presence vs absence of probucol (ER probucol/ctrl) (Abcg4 [1]; probucol 10 µM in perfusion fluid, [3H]desmosterol 0.2 µCi/mL, Krebs bicarbonate pH 7.40, 37 °C, means of 8–9 mice): 1.8 fold
- Increase of [3H]Aβ1–40 Clup in the presence vs absence of probucol (ER probucol/ctrl) (Abcg4 [1]; probucol 10 µM, [3H]Aβ1–40 0.2 µCi/mL, pH 7.40, 37 °C, means of 8–9 mice): 2.1 fold
- Effect of probucol on [3H]Aβ1–40 Clup (Abcg4 [2]; [9]): this effect was lost
- Effect of probucol on [3H]desmosterol Clup (Abcg4 [2]; [9]): this effect was lost
- Inhibition of Abcg4-mediated Aβ efflux (Abcg4 [6]): 2 fold
